Literature values, collected in patent publication US6875793B2, “Once-a-day controlled release sulfonylurea formulation” (Penwest Pharmaceuticals Co., priority 1997, dated 2005).
One block for each compound: values may come before it.

Tests used:
[1] = system: insulin secretion; conditions: after an oral dose, diabetic patients

SMILES: COc1ccc(Cl)cc1C(=O)NCCc1ccc(S(=O)(=O)NC(=O)NC2CCCCC2)cc1 [Glyburide]
solubility in organic solvents (organic solvents): soluble
solubility in water (water): sparingly soluble

SMILES: CCCNC(=O)NS(=O)(=O)c1ccc(Cl)cc1 [Chlorpropamide]
solubility in water at pH 6.0 (water, pH 6.0): 2.2 mg/ml
solubility in water at pH 7.3 (water, pH 7.3): practically non-soluble

SMILES: Cc1cnc(C(=O)NCCc2ccc(S(=O)(=O)NC(=O)NC3CCCCC3)cc2)cn1 [Glipizide]
time to insulinotropic response to a meal [1]: ≤ 30 min

Other lines, results leading:

solubility at pH 6.0 (mean urinary pH) (pH 6.0): 27.8 mg per 100 ml
solubility in water (water): relatively insoluble
SMILES: Cc1ccc(S(=O)(=O)NC(=O)NN2CCCCCC2)cc1 [Tolazamide]

solubility in water (water): practically insoluble
SMILES: CCCCNC(=O)NS(=O)(=O)c1ccc(C)cc1 [Tolbutamide]

solubility in alcohol (alcohol): slightly soluble
solubility in alkali (alkali, e.g., 0.1N sodium hydroxide, dilute solutions of alkali hydroxides): soluble
solubility in water (water): practically insoluble
SMILES: CC(=O)c1ccc(S(=O)(=O)NC(=O)NC2CCCCC2)cc1 [Acetohexamide]
